Consider two molecules from paper PMC6797236, “Bacillus subtilis PgcA moonlights as a phosphoglucosamine mutase in support of peptidoglycan synthesis” (PLoS Genetics, 2019).

Type in all cases: biochemical
For test [1], the target named is T1, PgcA (Bacillus subtilis, UniProt P18159).
T1 construct: N-terminal 6xHis tag, tag cleavage not mentioned; expressed in E. coli DH5alpha, Ni-NTA purified
T1 sequence (P18159 1-581): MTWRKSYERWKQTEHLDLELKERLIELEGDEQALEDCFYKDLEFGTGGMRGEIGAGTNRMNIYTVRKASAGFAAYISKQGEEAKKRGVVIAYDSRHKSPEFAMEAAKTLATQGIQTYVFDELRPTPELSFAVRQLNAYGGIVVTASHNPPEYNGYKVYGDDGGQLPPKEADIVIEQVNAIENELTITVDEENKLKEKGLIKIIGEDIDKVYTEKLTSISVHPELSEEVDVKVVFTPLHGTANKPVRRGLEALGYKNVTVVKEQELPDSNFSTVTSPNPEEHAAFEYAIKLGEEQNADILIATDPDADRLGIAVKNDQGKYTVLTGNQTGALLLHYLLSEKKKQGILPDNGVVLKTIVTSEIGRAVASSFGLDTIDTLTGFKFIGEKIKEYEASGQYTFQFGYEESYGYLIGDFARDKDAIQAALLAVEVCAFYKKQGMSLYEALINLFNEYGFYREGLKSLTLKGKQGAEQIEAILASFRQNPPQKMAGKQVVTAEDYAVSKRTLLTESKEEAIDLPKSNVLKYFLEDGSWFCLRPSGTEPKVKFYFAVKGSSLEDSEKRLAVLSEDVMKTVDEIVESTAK
The test is described as follows: LC-MS assay of glucose 6-phosphate formation. The following applies: 5 mM MgCl2, 20 uM glucose-1,6-bisphosphate, 50 mM Tris-HCl pH 8.0; PGM reaction.

A further test addresses T2, GlmM (Bacillus subtilis, UniProt O34824).
T2 construct: purified protein; tag and expression of GlmM not described separately
T2 sequence (O34824 1-448): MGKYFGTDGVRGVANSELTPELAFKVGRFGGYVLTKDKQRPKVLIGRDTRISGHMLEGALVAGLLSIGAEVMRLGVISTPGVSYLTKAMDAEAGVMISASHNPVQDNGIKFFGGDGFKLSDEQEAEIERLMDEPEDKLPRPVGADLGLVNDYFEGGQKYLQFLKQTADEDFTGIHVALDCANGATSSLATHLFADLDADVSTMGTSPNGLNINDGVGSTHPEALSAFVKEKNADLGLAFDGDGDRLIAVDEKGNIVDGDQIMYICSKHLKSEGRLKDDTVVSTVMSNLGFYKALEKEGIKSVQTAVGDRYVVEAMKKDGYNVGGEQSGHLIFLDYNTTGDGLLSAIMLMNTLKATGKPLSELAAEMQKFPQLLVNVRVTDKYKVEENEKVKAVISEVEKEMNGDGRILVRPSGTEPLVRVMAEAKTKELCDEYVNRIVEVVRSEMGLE
The test is described as follows: LC-MS assay of glucosamine 6-phosphate formation. As to conditions: 5 mM MgCl2, 0.7 mM glucose-1,6-bisphosphate, 50 mM Tris-HCl pH 8.0; PNGM reaction.

Test [2] addresses T1, PgcA. The test is described as follows: LC-MS assay of glucosamine 6-phosphate formation. As to conditions: 5 mM MgCl2, 20 uM glucose-1,6-bisphosphate, 50 mM Tris-HCl pH 8.0; PNGM reaction.

As to `O=P(O)(O)O[C@H]1O[C@H](CO)[C@@H](O)[C@H](O)[C@H]1O` [Glc-1-P], the KM result on PgcA [1] was “Both PgcA and PgcA G47S were equally active in the PGM reaction”.
In the case of `N[C@H]1[C@@H](OP(=O)(O)O)O[C@H](CO)[C@@H](O)[C@@H]1O` [GlcN-1-P], the KM entry at GlmM is recorded as “GlmM from B. subtilis, which had an affinity for GlcN-1-P substrate”; at PgcA [2] it was “using GlcN-1-P as substrate to monitor the PNGM reaction”.
